Laboratory results taken from PMC9699072 (Molecules, 2022).
Several values for one entry are separate records, joined by “and”; a condition that tells them apart may be missing. Equal entries are not always repeated. Structures can show the parent of a compound that is named as a salt. Where two headings read alike, the source gives them in different places.

Tests used:
[1] = FRAP (ferric reducing antioxidant power) assay; type: biochemical; conditions: for FRAP TE (Trolox equivalent): mean ± SEM, n = 3, 1 h, 37 °C, pH 3.6
Description: The FRAP (ferric reducing antioxidant power) assay measures the ability of antioxidants to reduce the ferric 2,4,6-tripyridyl-s-triazine complex [Fe(TPTZ)2]^3+ to the intensely blue ferrous complex [Fe(TPTZ)2]^2+ in an acidic medium. The measurements were performed as previously described in detail. The results are expressed as TE (Trolox equivalents).
The FRAP (ferric reducing antioxidant power) assay measures the ability of antioxidants to reduce the ferric 2,4,6-tripyridyl-s-triazine complex [Fe (TPTZ)2]^3+ to the intensely blue ferrous complex [Fe (TPTZ)2]^2+ (λ = 593 nm) in acidic medium. 2,4,6-Tris(pyridin-2-yl)-1,3,5-triazine (TPTZ), FeCl3·6H2O, Trolox, quercetin and DMSO were obtained from Sigma-Aldrich Chemical Co. (St. Louis, MO, USA). The FRAP reagent contained 2.5 mL of 10 mM TPTZ solution in 40 mM HCl, 2.5 mL of 20 mM FeCl3·6H2O water solution, and 25 mL of 0.3 M acetate buffer (pH 3.6). Aliquots of 10 µL of the test compound solution in DMSO (0.5 mM) were mixed with 240 µL of FRAP reagent, and the absorbance of the mixture was measured spectrophotometrically (FLUOStar OPTIMA microplate spectrophotometer (BMG Labtech, Ortenberg, Germany)) at 600 nm after 1 h incubation at 37 °C against a blank. Trolox was used as a reference compound. Quercetin was used as a positive control. A calibration curve with linear formula y = 0.03x (R^2 = 0.998, p < 0.0001) was prepared for Trolox solutions in DMSO at a range of 2.5–100 µM, and the results are expressed as Trolox equivalents (TE), the values calculated as the ratio of the concentrations of Trolox and the test compound, resulting in the same effect.

[2] = system: porcine liver CES; assay: Inhibition of CES (4-nitrophenol acetate hydrolysis); type: biochemical; conditions: ± SEM; for CES % inhibition at 20 μM: n = 3, 10 min incubation 25 °C; for IC50: n = 3
Source text: (§1) Given the available literature data on the ability of pyrazole derivatives to inhibit acetylcholinesterase (AChE) and human carboxylesterase-1 (CES), we performed an investigation of the esterase profile for new compounds 1a–j and 4a–j, including an evaluation of their inhibitory effect on the standard enzymes set: human erythrocyte AChE, equine serum butyrylcholinesterase (BChE), and porcine liver CES (Table 2). The applicability of this set of enzymes was shown by us earlier.
(§2) Human erythrocyte acetylcholinesterase (AChE, EC 3.1.1.7), equine serum butyrylcholinesterase (BChE, EC 3.1.1.8), porcine liver carboxylesterase (CES, EC 3.1.1.1), acetylthiocholine iodide (ATCh), butyrylthiocholine iodide (BTCh), 4-nitrophenol acetate (4-NPA), and 5,5′-dithio-bis-(2-nitrobenzoic acid) (DTNB) were purchased from Sigma-Aldrich (Saint Louis, MO, USA).
(§3) All the kinetic experiments were performed under standard conditions, according to the protocol of IPAC RAS for a reversible inhibitors study.
(§4) Ellman’s colorimetric assay was used to measure AChE and BChE activity in 0.1 M K/Na phosphate buffer at pH 7.5, 25 °C [86]. Final concentrations of reactants were 0.33 mM DTNB, 0.02 unit/mL of AChE or BChE, and 1 mM of substrate (ATCh or BTCh, respectively). Reagent blanks consisted of reaction mixtures without enzyme to assess non-enzymatic hydrolysis of substrates. Porcine liver CES activity was assessed colorimetrically in 0.1 M K/Na phosphate buffer with pH 8.0 at 25 °C, by measuring the absorbance of 4-nitrophenol at 405 nm. Final enzyme and substrate (4-NPA) concentrations were 0.02 unit/mL and 1 mM, respectively. Reagent blanks included all constituents except enzyme.
(§5) Test compounds were dissolved in DMSO. Reaction mixtures contained a final DMSO concentration of 2% (v/v). Enzyme inhibition was first assessed at a single concentration of 20 µM for each compound after a 10 min incubation at 25 °C in three separate experiments. Compounds inhibiting the enzyme by more than 30% were then selected for determination of the IC50 (inhibitor concentration resulting in 50% inhibition of control enzyme activity). […] Substrate was then added, and residual enzyme activity relative to an inhibitor-free control was measured using a FLUOStar Optima microplate reader (LabTech, Ortenberg, Germany).

[3] = system: normal human dermal fibroblast (NHDF) cultures; assay: Cytotoxicity, MTT/formazan assay; type: cell-based; conditions: 72 h, MTT
Description: Cytotoxicity of compounds was evaluated using a culture of human dermal fibroblasts, which were isolated in the Laboratory of Cell Cultures of the Institute of Medical Cell Technologies, Ekaterinburg, Russia. Cells were seeded in 96-well plates in the inoculum dose of 2 × 10^5 cells/mL and cultured for 24 h in Dulbecco’s Modified Eagle Medium (DMEM), with 1% (w/v) glutamine in the presence of 10% (v/v) fetal bovine serum and gentamicin (50 mg/L) at 37 °C, with a humidified atmosphere of 5% (v/v) CO2. Then, compounds, which were solved in DMSO, were added to the wells at the final concentrations of 0.1, 1, 10, and 100 µM. The cells were incubated with compounds for 72 h, after which cell viability was assessed using the standard MTT assay. The assay was carried out in four replicates with negative (culture medium) and positive (solution of the cytotoxic drug camptothecin at a concentration of 3 mM) controls, and the solvent control (DMSO). […] The MTT staining of control cells was taken as 100%.

[4] = ORAC-FL (oxygen radical absorbance capacity) assay; type: biochemical; conditions: mean ± SEM, n = 3; 2 h; read-out: ORAC-FL IC50 (compound concentration required for 50% reduction of peroxyl radical) (converted)
[5] = target: T1, equine serum butyrylcholinesterase (BChE) (Equus caballus, UniProt P81908); assay: Inhibition of BChE (Ellman's colorimetric assay); type: biochemical; conditions: ± SEM, n = 3, 10 min incubation 25 °C
T1 construct: equine serum butyrylcholinesterase (BChE, EC 3.1.1.8); purchased Sigma-Aldrich (Saint Louis, MO, USA); host or cells: equine serum
T1 sequence (P81908 whole entry): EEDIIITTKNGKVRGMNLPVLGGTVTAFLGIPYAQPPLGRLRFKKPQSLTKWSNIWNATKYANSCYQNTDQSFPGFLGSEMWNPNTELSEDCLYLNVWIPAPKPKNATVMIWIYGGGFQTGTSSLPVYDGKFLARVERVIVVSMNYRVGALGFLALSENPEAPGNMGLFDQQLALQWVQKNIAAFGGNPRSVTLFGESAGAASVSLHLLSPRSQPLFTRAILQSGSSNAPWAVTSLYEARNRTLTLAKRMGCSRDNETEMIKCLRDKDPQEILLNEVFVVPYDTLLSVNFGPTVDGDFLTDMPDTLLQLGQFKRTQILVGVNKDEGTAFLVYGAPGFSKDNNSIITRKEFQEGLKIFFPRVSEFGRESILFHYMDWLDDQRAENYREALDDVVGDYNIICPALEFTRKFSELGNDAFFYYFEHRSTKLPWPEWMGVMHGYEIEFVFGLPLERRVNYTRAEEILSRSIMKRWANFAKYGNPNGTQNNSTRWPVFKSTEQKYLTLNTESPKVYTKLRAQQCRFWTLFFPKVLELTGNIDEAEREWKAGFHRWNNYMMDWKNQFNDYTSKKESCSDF
Source text: as §1, §2, §3, §4, §5

[6] = target: T2, human erythrocyte AChE (Homo sapiens, UniProt P22303); assay: Inhibition of AChE (Ellman's colorimetric assay); type: biochemical; conditions: read-out: AChE % inhibition at 20 μM
T2 construct: Human erythrocyte acetylcholinesterase (AChE, EC 3.1.1.7); purchased Sigma-Aldrich (Saint Louis, MO, USA); host or cells: human erythrocytes
T2 sequence (P22303 32-617 isoform P22303-2 limits assumed): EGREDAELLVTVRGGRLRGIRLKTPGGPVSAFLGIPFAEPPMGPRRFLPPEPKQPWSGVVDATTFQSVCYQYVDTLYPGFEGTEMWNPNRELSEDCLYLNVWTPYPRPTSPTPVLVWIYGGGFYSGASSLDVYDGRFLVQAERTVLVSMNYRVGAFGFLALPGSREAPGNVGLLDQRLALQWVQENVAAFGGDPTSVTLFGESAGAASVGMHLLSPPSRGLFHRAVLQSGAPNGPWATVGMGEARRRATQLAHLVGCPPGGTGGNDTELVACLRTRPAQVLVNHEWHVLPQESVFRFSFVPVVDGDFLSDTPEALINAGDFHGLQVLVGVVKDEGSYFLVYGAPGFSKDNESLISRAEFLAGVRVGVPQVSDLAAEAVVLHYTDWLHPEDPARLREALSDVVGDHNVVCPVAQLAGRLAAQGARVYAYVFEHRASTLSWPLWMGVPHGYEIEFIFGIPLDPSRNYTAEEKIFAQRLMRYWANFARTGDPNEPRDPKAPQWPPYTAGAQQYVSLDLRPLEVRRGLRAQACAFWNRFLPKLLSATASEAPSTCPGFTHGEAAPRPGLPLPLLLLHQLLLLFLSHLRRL
Source text: as §1, §2, §3, §4, §5

[7] = set-up: method as in PMID 16997555; conditions: relative to EDA; cited from earlier work
[8] = 20 μM, ± SEM, n = 3, 10 min incubation 25 °C

Molecule	FRAP TE (Trolox equivalent) [1] [TE]	CES % inhibition at 20 μM [2] [%]	inhibition at 20 µM [5] [%]	IC50 [2]	inhibition at 20 µM [6] [%]	other results
3-methyl-1-phenyl-2-pyrazolin-5-one [EDA, reference compound]	0.80 ± 0.01	8.4 ± 0.7				Inhibitory Capability (IC, %) on NHDF ([3]; 1 µM): 3.74 ± 0.05%; Inhibitory Capability (IC, %) on NHDF ([3]; 10 µM): 19.9 ± 0.8%; Inhibitory Capability (IC, %) on NHDF ([3]; 100 µM): 32.8 ± 0.6%; IC50 [4]: 5.6 µM; BChE % inhibition at 20 μM [5]: 4.6 ± 0.2%
O=C1NN=C(C(F)(F)F)/C1=N/O [1e]	0.07 ± 0.01	5.9 ± 1.1				
O=C1NN=C(C(F)(F)C(F)(F)F)/C1=N/O [1g]	0.13 ± 0.01	7.8 ± 1.4				
CC1=NNC(=O)/C1=N\O [1j]	0.09 ± 0.01		3.8 ± 1.3			
Cl.Nc1c(C(F)(F)F)nn(-c2ccccc2)c1O [4a, 4-Amino-3-(trifluoromethyl)-1-phenyl-1H-pyrazol-5-ol hydrochloride]	0.89 ± 0.05		6.9 ± 1.1	44.9 ± 4 µM		inhibition at 20 µM [6, 8]: 7.9 ± 1.5%; IC50 [4]: 8.8 µM
Cl.Nc1c(C(F)(F)C(F)(F)F)nn(-c2ccccc2)c1O.O [4b, 4-Amino-3-(pentafluoroethyl)-1-phenyl-1H-pyrazol-5-ol hydrate hydrochloride]	0.75 ± 0.07	16.6 ± 1.4	12.8 ± 1.5		4.4 ± 1.1	
Nc1c(C(F)(F)C(F)(F)C(F)(F)C(F)(F)F)nn(-c2ccccc2)c1O [4c, 5-Hydroxy-1-phenyl-3-(nonafluorobuthyl)-1H-pyrazol-4-ammonium hydrochloride]	0.98 ±0.05		10.3 ± 1.2	10 µM and 10.2 µM	19.2 ± 1.7	
Cc1nn(-c2ccccc2)c(O)c1N.Cl.O [4d, 4-Amino-3-methyl-1-phenyl-1H-pyrazol-5-ol hydrochloride hydrate]	0.98 ± 0.08		5.1 ± 1.3	98.7 ± 8.8 µM	6.5 ± 1.2	FRAP TE (Trolox equivalent) ([1]; listed as APH): 0.98 TE; Cytotoxicity against NHDF cell culture ([3]; 100 µM): neither of the compounds 4d,j showed cytotoxicity; Cytotoxicity against NHDF cell culture ([3]; 100 µM, listed as APH): not cytotoxic; IC50 [4]: 6.85 µM
Cl.Nc1c(C(F)(F)F)n[nH]c1O [4e, 4-Amino-3-(trifluoromethyl)-1H-pyrazol-5-ol hydrochloride]	1.02 ± 0.02		5.6 ± 1.5			inhibition at 20 µM [6, 8]: 9.7 ± 1.5%
Cl.Nc1c(C(F)(F)C(F)(F)F)n[nH]c1O.O [4g, 4-Amino-3-(pentafluoroethyl)-1H-pyrazol-5-ol hydrate hydrochloride]	0.88 ± 0.04	6.7 ± 1.2	8.9 ± 1.4		17.3 ± 1.7	
Cl.Nc1c(C(F)(F)C(F)(F)C(F)(F)F)n[nH]c1O.O [4h, 4-Amino-3-(heptafluoropropyl)-1H-pyrazol-5-ol hydrate hydrochloride]	1.03 ± 0.04		3.4 ± 0.9	81.8 ± 7.3 µM		
Cl.Nc1c(C(F)(F)C(F)(F)C(F)(F)C(F)(F)F)n[nH]c1O.O [4i, 4-Amino-3-(nonafluorobutyl)-1H-pyrazol-5-ol hydrate hydrochloride]	0.75 ± 0.05			22 µM and 21.8 µM	5.1 ± 0.9	
Cc1n[nH]c(O)c1N.Cl [4j, 4-Amino-3-methyl-1H-pyrazol-5-ol hydrochloride]	1.04 ± 0.04	4.3 ± 0.9	13.9 ± 1.6			Cytotoxicity against NHDF cell culture ([3]; 100 µM): neither of the compounds 4d,j showed cytotoxicity
Oc1cc(C(F)(F)F)nn1-c1ccccc1 [CF3-EDA, 3-trifluoromethyl-1-phenylpyrazol-5-ol, reference compound]	0.63 ± 0.03	7.6 ± 1.2				Ferric reducing activity lower than that of EDA ([1]; FRAP test, relative to EDA): 20%; Times less active compared to EDA in the OH radical binding test [7]: 3 times; IC50 [4]: 6.3 µM
